# In patent US11319324B2, “Pyrazolo-pyrrolo-pyrimidine-dione derivatives as P2X3 inhibitors” (Bayer Aktiengesellschaft, priority 2017, dated 2022):
# Key:
# Type in all cases: cell-based
# [1] = biological target: T1, human P2X2/3 receptors (Homo sapiens, UniProt P56373+Q9UBL9); assay: Intracellular calcium measurement, antagonist activity at human P2X2/3 receptors (hP2X23 1321N1), Fluo8; details: for IC50: column 4); 1321N1 cells, human P2X2/3, Fluo8, agonist ATP at EC50; read-out: 4) hP2X2/3 IC50 [nM] (1321N1); for hP2X23/hP2X3* Selectivity (1321N1): ratio of column 4) hP2X2/3 to column 3) hP2X3, 1321N1
# T1 construct: expressed in transfected cells; host or cells: human astrocytoma 1321N1 (1312N1 [sic])
# T1 sequence (P56373 1-397): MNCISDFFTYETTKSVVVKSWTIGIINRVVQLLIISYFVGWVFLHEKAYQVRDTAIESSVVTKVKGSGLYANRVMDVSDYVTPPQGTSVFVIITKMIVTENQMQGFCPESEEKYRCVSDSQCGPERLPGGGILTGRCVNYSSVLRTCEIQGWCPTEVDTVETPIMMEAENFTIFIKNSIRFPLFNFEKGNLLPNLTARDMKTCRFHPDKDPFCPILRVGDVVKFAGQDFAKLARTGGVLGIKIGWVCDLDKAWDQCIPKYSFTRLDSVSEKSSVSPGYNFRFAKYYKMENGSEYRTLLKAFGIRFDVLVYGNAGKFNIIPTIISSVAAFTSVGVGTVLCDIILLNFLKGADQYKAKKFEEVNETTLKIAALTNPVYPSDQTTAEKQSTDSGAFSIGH
# T1 sequence (Q9UBL9 1-471): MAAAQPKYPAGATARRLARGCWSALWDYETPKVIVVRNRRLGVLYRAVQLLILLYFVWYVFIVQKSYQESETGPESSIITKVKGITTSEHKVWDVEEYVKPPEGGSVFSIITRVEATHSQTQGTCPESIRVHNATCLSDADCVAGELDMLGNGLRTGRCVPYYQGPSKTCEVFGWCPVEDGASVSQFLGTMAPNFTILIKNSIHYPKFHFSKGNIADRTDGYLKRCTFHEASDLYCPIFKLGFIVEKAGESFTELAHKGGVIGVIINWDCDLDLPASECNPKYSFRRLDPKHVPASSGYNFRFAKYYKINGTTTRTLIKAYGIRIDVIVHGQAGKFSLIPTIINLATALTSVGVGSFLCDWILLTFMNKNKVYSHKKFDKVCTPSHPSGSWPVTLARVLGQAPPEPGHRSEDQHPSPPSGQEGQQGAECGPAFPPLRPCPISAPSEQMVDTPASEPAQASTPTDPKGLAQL
# Procedure, shortened: (§1)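 Antagonism was assessed by decrease of the Fluo8 calcium signal after ATP challenge, with ATP dosed at the EC50 of whichever receptor was tested. Stable 1321N1 astrocytoma lines expressed either human P2X3 or both P2X2 and P2X3, and were dye-loaded 60 min before a 10 min compound incubation.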
# [2] = biological target: T2, human P2X3 receptor (Homo sapiens, UniProt P56373); assay: Intracellular calcium measurement to assess antagonist activity at human P2X3 receptors (hP2X3 CHO), photina luminescence; set-up: expressed in transfected cells; host or cells: Chinese hamster ovary (CHO) cells; details: column 2), CHO cells, agonist α,β-methylene-ATP at EC50
# T2 sequence (P56373 1-397): T1 sequence (P56373 1-397)
# Procedure, shortened: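 Antagonism read as lowered photina luminescence after agonist stimulation in recombinant hP2X3/photina CHO cells. Cells seeded one day earlier (30 °C) and reconstituted with 5 μg/ml coelenterazine in 2 mM Ca-tyrode buffer for 3 h at 37 °C before measurement.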
# [3] = biological target: T2, human P2X3 receptor; assay: Intracellular calcium measurement, antagonist activity at human P2X3 receptors (hP2X3 1321N1), Fluo8; set-up: expressed in transfected cells; host or cells: human astrocytoma 1321N1 (1312N1 [sic]); details: column 3); 1321N1 cells, human P2X3, Fluo8, agonist ATP at EC50
# Procedure, shortened: as §1
SMILES,IC50 [1] [nM],hP2X23/hP2X3* Selectivity (1321N1) [1],IC50 [2] [nM],IC50 [3] [nM]
"CCc1cc2n(CC(=O)Nc3ccc(F)cn3)c3c(c(=O)n2n1)CN(C[C@H]1CN(C(C)C)CCO1)C3=O [Example 256, 2-(2-ethyl-5,8-dioxo-6-{[(2R)-4-(propan-2-yl)morpholin-2-yl]methyl}-5,6,7,8-tetrahydro-4H-pyrazolo[1,5-a]pyrrolo[3,4-d]pyrimidin-4-yl)-N-(5-fluoropyridin-2-yl)acetamide]",1590,30,42,53
CCc1cc2n(CC(=O)Nc3ccc(F)cn3)c3c(c(=O)n2n1)CN(Cc1ccc(F)cc1)C3=O [Example 112],2550,232,17,11
CC(C)N1Cc2c(n(CC(=O)Nc3ccc(F)cn3)c3cc(C(=O)N(C)CC4CC4)nn3c2=O)C1=O [Example 199],7000,1321,11,5
CC(C)N1Cc2c(n(CC(=O)Nc3ccc(F)cn3)c3cc(C(=O)NC4CC4)nn3c2=O)C1=O [Example 79],4800,79,94,61
CC(C)N1Cc2c(n(CC(=O)Nc3ccc(F)cn3)c3cc(C4CNC4)nn3c2=O)C1=O.Cl [Example 244],7900,28,330,280
CCc1cc2n(CC(=O)Nc3ccc(F)cn3)c3c(c(=O)n2n1)CN(CC1CCNCC1)C3=O.Cl [Example 240],> 32000,>25,628,1270
"CC(=O)Nc1cc2n(CC(=O)Nc3ccc(F)cn3)c3c(c(=O)n2n1)CN(C(C)C)C3=O [Example 282, 2-[2-(acetylamino)-5,8-dioxo-6-(propan-2-yl)-5,6,7,8-tetrahydro-4H-pyrazolo[1,5-a]pyrrolo[3,4-d]pyrimidin-4-yl]-N-(5-fluoropyridin-2-yl)acetamide]",> 32000,>99,110,323
"CCc1cc2n(CC(=O)Nc3ccc(F)cn3)c3c(c(=O)n2n1)CN(C[C@@H]1CCCO1)C3=O [Example 279, 2-{2-ethyl-5,8-dioxo-6-[(2S)-tetrahydrofuran-2-ylmethyl]-5,6,7,8-tetrahydro-4H-pyrazolo[1,5-a]pyrrolo[3,4-d]pyrimidin-4-yl}-N-(5-fluoropyridin-2-yl)acetamide]",> 23000,>85,210,270
CC(C)N1Cc2c(n(CC(=O)Nc3ccc(F)cn3)c3cc(C4CCN(C)CC4)nn3c2=O)C1=O [Example 251],> 32000,>164,235,195
"CC(C)N1Cc2c(n(CC(=O)Nc3ccc(F)cn3)c3cc(NCCO)nn3c2=O)C1=O [Example 276, N-(5-fluoropyridin-2-yl)-2-{2-[(2-hydroxyethyl)amino]-5,8-dioxo-6-(propan-2-yl)-5,6,7,8-tetrahydro-4H-pyrazolo[1,5-a]pyrrolo[3,4-d]pyrimidin-4-yl}acetamide]",> 20200,>223,130,91
CC(C)N1Cc2c(n(CC(=O)Nc3ccc(F)cn3)c3cc(NCC(F)F)nn3c2=O)C1=O [Example 170],> 20400,>170,59,120
CCc1cc2n(CC(=O)Nc3ccc(F)cn3)c3c(c(=O)n2n1)CN(CC1CCCN1)C3=O.Cl (stereo not shown) [Example 239],> 32000,>49,220,650
"CCc1cc2n(CC(=O)Nc3ccc(F)cn3)c3c(c(=O)n2n1)CN(C[C@H]1CNCCO1)C3=O [Example 247, 2-{2-ethyl-6-[(2R)-morpholin-2-ylmethyl]-5,8-dioxo-5,6,7,8-tetrahydro-4H-pyrazolo[1,5-a]pyrrolo[3,4-d]pyrimidin-4-yl}-N-(5-fluoropyridin-2-yl)acetamide]",> 32000,>34,360,937
"CC(C)N1Cc2c(n(CC(=O)Nc3ccc(F)cn3)c3cc(NCCOCc4ccccc4)nn3c2=O)C1=O [Example 176, 2-[2-{[2-(benzyloxy)ethyl]amino}-5,8-dioxo-6-(propan-2-yl)-5,6,7,8-tetrahydro-4H-pyrazolo[1,5-a]pyrrolo[3,4-d]pyrimidin-4-yl]-N-(5-fluoropyridin-2-yl)acetamide]",7700,114,88,68
Cc1cc(C)c(-c2cc3n(CC(=O)Nc4ccc(F)cn4)c4c(c(=O)n3n2)CN(C(C)C)C4=O)cn1 [Example 156],295,78,12,4

# Other lines, results leading:
IC50 [1] [nM],hP2X23/hP2X3* Selectivity (1321N1) [1],IC50 [2] [nM],IC50 [3] [nM],SMILES
8900,85,58,104,CCNc1cc2n(CC(=O)Nc3ccc(F)cn3)c3c(c(=O)n2n1)CN(C(C)C)C3=O [Example 173]
3200,200,18,16,CCc1cc2n(CC(=O)Nc3ccc(F)cn3)c3c(c(=O)n2n1)CN(Cc1ccccn1)C3=O [Example 108]
> 32000,>86,125,370,"CC(C)N1Cc2c(n(CC(=O)Nc3ccc(F)cn3)c3cc(C4CCNCC4)nn3c2=O)C1=O.Cl [Example 234, 2-[5,8-dioxo-2-(piperidin-4-yl)-6-(propan-2-yl)-5,6,7,8-tetrahydro-4H-pyrazolo[1,5-a]pyrrolo[3,4-d]pyrimidin-4-yl]-N-(5-fluoropyridin-2-yl)acetamide hydrochloride (1:1)]"
9500,91,122,104,"CCc1cc2n(CC(=O)Nc3ccc(F)cn3)c3c(c(=O)n2n1)CN(C[C@H]1CCCO1)C3=O [Example 73, 2-{2-ethyl-5,8-dioxo-6-[(2R)-tetrahydrofuran-2-ylmethyl]-5,6,7,8-tetrahydro-4H-pyrazolo[1,5-a]pyrrolo[3,4-d]pyrimidin-4-yl}-N-(5-fluoropyridin-2-yl)acetamide]"
1950,31,32,63,CCc1cc2n(CC(=O)Nc3ccc(F)cn3)c3c(c(=O)n2n1)CN(CC1CCN(C(=O)OC(C)(C)C)C1)C3=O (stereo not shown) [Example 80]
6100,98,21,62,CCc1cc2n(CC(=O)Nc3ccc(F)cn3)c3c(c(=O)n2n1)CN(C1CCN(C(=O)OC(C)(C)C)C1)C3=O (stereo not shown) [Example 78]
> 32000,>43,185,740,"CCc1cc2n(CC(=O)Nc3ccc(F)cn3)c3c(c(=O)n2n1)CN(C[C@@H]1COCCN1)C3=O [Example 248, 2-{2-ethyl-6-[(3R)-morpholin-3-ylmethyl]-5,8-dioxo-5,6,7,8-tetrahydro-4H-pyrazolo[1,5-a]pyrrolo[3,4-d]pyrimidin-4-yl}-N-(5-fluoropyridin-2-yl)acetamide]"
2300,118,23,20,CC(C)N1Cc2c(n(CC(=O)Nc3ccc(F)cn3)c3cc(C(=O)N4CCCCC4)nn3c2=O)C1=O [Example 183]
4900,148,27,33,CC(C)Nc1cc2n(CC(=O)Nc3ccc(F)cn3)c3c(c(=O)n2n1)CN(C(C)C)C3=O [Example 171]
> 32000,>74,430,433,CCc1cc2n(CC(=O)Nc3ccccn3)c3c(c(=O)n2n1)CN(C(C)C)C3=O [Example 64]
